Twelve molecules from patent publication US20250197424A1, “QUINOLINE COMPOUND AND USE THEREOF” (SHANGHAI PHARMACEUTICALS HOLDING CO., LTD., priority 2022, published 2025) can be followed below.

The structures appear in SMILES notation. Where a name gives a salt, the structure may show the parent alone.

Chain of GTP-KRAS-G12D:SOS1 (P01116-2 other isoform, or with tags, fused parts or gaps G12D): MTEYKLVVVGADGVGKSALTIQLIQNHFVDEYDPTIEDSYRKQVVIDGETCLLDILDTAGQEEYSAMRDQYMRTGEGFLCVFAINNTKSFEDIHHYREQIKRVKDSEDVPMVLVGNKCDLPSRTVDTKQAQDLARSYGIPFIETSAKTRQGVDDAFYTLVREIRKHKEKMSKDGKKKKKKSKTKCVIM

The test deals with GTP-KRAS-G12D:SOS1 (Homo sapiens (Human), UniProt P01116, G12D). The test is described as follows: GTP-KRAS-G12D:SOS1 binding inhibition. How it is done:
The IC50 of the compounds was fitted using a nonlinear regression equation with GraphPad Prism 8. The results are presented in Table 2: • Negative control: DMSO • Positive control: 100 μM BI-2852
The following nonlinear fitting formula was used to obtain the IC50 (half-maximal inhibitory concentration) of the compounds:
[formula] • X: logarithm of the compound concentration • Y: 665/615 Ratio
Take `CCc1cccc2cc(O)cc(-c3c(F)c4c5c(nc(OC[C@]67C[C@@H](F)CN6C[C@@H](CO)C7)nc5c3F)N3CC5CCC(N5)C3CO4)c12` (single isomer, unassigned) [Compound 23a, 4-((2R or 2S, 5aS,6S,9R)-1,3-Difluoro-13-(((2R,6S,7aS)-2-fluoro-6-(hydroxymethyl)tetrahydro-1H-pyrrolizin-7a(5H)-yl)methoxy)-5a,6,7,8,9,10-hexahydro-5H-6,9-epiminoazepino[2′,1′:3,4][1,4]oxazepino[5,6,7-de]quinazolin-2-yl)-5-ethylnaphthalen-2-ol dihydrochloride]: the IC50 – broadly, the point on the concentration scale where inhibition reaches its midpoint – is 3690 nM. For `CCc1cccc2cc(O)cc(-c3c(F)c4c5c(nc(OC[C@]67C[C@@H](F)CN6C[C@@H](CN6CCOCC6)C7)nc5c3F)N3CC5CCC(N5)C3CO4)c12` (single isomer, unassigned) [Compound 28b, 4-((2S or 2R,5aS,6S,9R)-1,3-difluoro-13-(((2R,6R,7aS)-2-fluoro-6-(morpholinomethyl)tetrahydro-1H-pyrrolizin-7a(5H)-yl)methoxy)-5a,6,7,8,9,10-hexahydro-5H-6,9-epiminoazepino[2′,1′:3,4][1,4]oxazepino[5,6,7-de]quinazolin-2-yl)-5-ethylnaphthalen-2-ol trihydrochloride], the half-maximal inhibitory concentration (IC50) is 15.2 nM.

On to `O=C1CC2(CCc3c(nc(OC[C@@]45CCCN4C[C@H](F)C5)nc3N3C[C@H]4CC[C@@H](C3)N4)C2)c2cc(O)cc(Cl)c21` (single isomer, unassigned) [Compound 6a, (S or R)-4′-((1R,5S)-3,8-Diazabicyclo[3.2.1]octan-3-yl)-4-chloro-2′-(((2R,7aS)-2-fluorotetrahydro-1H-pyrrolizin-7a(5H)-yl)methoxy)-6-hydroxy-5′,8′-dihydro-6′H-spiro[indene-1,7′-quinazolin]-3 (2H)-one dihydrochloride], for which the IC50 was determined as 314 nM. Molecule `CCc1cccc2cc(O)cc(-c3c(F)c4c5c(nc(OC[C@@]67CCCN6C[C@H](F)C7)nc5c3F)N3CC5CCC(N5)C3CCO4)c12` (single isomer, unassigned) [Compound 13b, 4-((2R or 2S, 6aS,7S,10R)-1,3-difluoro-14-(((2R,7aS)-2-fluorotetrahydro-1H-pyrrolizin-7a(5H)-yl)methoxy)-5,6,6a,7,8,9,10,11-octahydro-7,10-epiminoazepino[1′,2′: 5,6][1,5]oxazocino[4,3,2-de]quinazolin-2-yl)-5-ethylnaphthalen-2-ol dihydrochloride] showed an IC50 of 8930 nM. For the molecule `Nc1cc2ccccc2c(-c2c(F)c3c4c(nc(OC[C@@]56CCCN5C[C@H](F)C6)nc4c2F)N2CC4CCC(N4)C2CO3)n1` (stereo partly drawn) [Compound 22, 1-((5aS,6S,9R)-1,3-Difluoro-13-(((2R,7aS)-2-fluorotetrahydro-1H-pyrrolizin-7a(5H)-yl)methoxy)-5a,6,7,8,9,10-hexahydro-5H-6,9-epiminoazepino[2′,1′:3,4][1,4]oxazepino[5,6,7-de]quinazolin-2-yl) isoquinolin-3-amine], the concentration for half-maximal inhibition (IC50) turned out to be 13.4 nM.

For the molecule `COc1ccc(-c2cc[nH]n2)c(-c2c(F)c3c4c(nc(OC[C@@]56CCCN5C[C@H](F)C6)nc4c2F)N2CC4CCC(N4)C2CO3)c1` (stereo partly drawn) [Compound 17, (5aS,6S,9R)-1,3-Difluoro-13-(((2R,7aS)-2-fluorotetrahydro-1H-pyrrolizin-7a(5H)-yl)methoxy)-2-(5-methoxy-2-(1H-pyrazol-3-yl)phenyl)-5a,6,7,8,9,10-hexahydro-5H-6,9-epiminoazepino[2′,1′:3,4][1,4]oxazepino[5,6,7-de]quinazoline dihydrochloride], the IC50 was 8310 nM. Under `CCc1cccc2cc(O)cc(-c3c(F)c4c5c(nc(OC[C@]67C[C@@H](F)CN6C[C@@H](OC)C7)nc5c3F)N3CC5CCC(N5)C3CO4)c12` (single isomer, unassigned) [Compound 16b, 4-((2S or 2R,5aS,6S,9R)-1,3-difluoro-13-(((2R,6S,7aS)-2-fluoro-6-methoxytetrahydro-1H-pyrrolizin-7a(5H)-yl)methoxy)-5a,6,7,8,9,10-hexahydro-5H-6,9-epiminoazepino[2′, l′: 3,4][1,4]oxazepino[5,6,7-de]quinazolin-2-yl)-5-ethylnaphthalen-2-ol dihydrochloride] stands 7.55 nM; under `Cc1cc(N)nc(-c2c(F)c3c4c(nc(OC[C@@]56CCCN5C[C@H](F)C6)nc4c2F)N2CC4CCC(N4)C2CO3)c1C(F)(F)F` (single isomer, unassigned) [10b′, (R or S)-6-((5aS,6S,9R)-1,3-difluoro-13-(((2R,7aS)-2-fluorotetrahydro-1H-pyrrolizin-7a(5H)-yl)methoxy)-5a,6,7,8,9,10-hexahydro-5H-6,9-epiminoazepino[2′,1′:3,4][1,4]oxazepino[5,6,7-de]quinazolin-2-yl)-4-methyl-5-(trifluoromethyl)pyridin-2-amine], 11.7 nM. `CCc1cccc2cc(O)cc(-c3c(F)c4c5c(nc(OC[C@@]67CCC8(CC8)N6C[C@H](F)C7)nc5c3F)N3CC5CCC(N5)C3CO4)c12` (single isomer, unassigned) [Compound 20b, 4-((2S or 2R,5aS,6S,9R)-1,3-difluoro-13-(((6′R,7a'S)-6′-fluorotetrahydrospiro[cyclopropane-1,3′-pyrrolizin]-7a′ (5′H)methoxy)-5a,6,7,8,9,10-hexahydro-5H-[6,9]epiminoazepino[2′,1′:3,4][1,4]oxazepino[5,6,7-de]quinazolin-2-yl)-5-ethylnaphthalen-2-oldihydrochloride] gave a half-maximal inhibitory concentration (IC50) of 8.81 nM.

On to `Cc1cc(N)nc(-c2c(F)c3c4c(nc(OC[C@@]56CCCN5C[C@H](F)C6)nc4c2F)N2C[C@@H]4CCC(N4)[C@H]2CCO3)c1C(F)(F)F` (single isomer, unassigned) [Compound 26b, 6-((2R or 2S, 6aS,7S,10R)-1,3-difluoro-14-(((2R,7aS)-2-fluorotetrahydro-1H-pyrrolizin-7a(5H)-yl)methoxy)-5,6,6a,7,8,9,10,11-octahydro-7,10-epiminoazepino[1′,2′: 5,6][1,5]oxazocino[4,3,2-de]quinazolin-2-yl)-4-methyl-5-(trifluoromethyl)pyridin-2-amine], for which the half-maximal inhibitory concentration (IC50) was determined as 15.7 nM. `COCCc1cccc2cc(O)cc(-c3c(F)c4c5c(nc(OC[C@@]67CCCN6C[C@H](F)C7)nc5c3F)N3CC5CCC(N5)C3CO4)c12` (single isomer, unassigned) [Compound 12b, 4-((2S or 2R,5aS,6S,9R)-1,3-difluoro-13-(((2R,7aS)-2-fluorotetrahydro-1H-pyrrolizin-7a(5H)-yl)methoxy)-5a,6,7,8,9,10-hexahydro-5H-6,9-epiminoazepino[2′,1′:3,4][1,4]oxazepino[5,6,7-de]quinazolin-2-yl)-5-(2-methoxyethyl) naphthalen-2-ol dihydrochloride] showed an IC50 of 21.3 nM. `CCc1cccc2cc(O)cc(-c3c(F)c4c5c(nc(OC[C@@]67CCCN6C[C@H](F)C7)nc5c3F)N3CC5CCC(N5)C3CO4)c12` (single isomer, unassigned) [Compound 5b, (R or S)-4-((5aS,6S,9R)-1,3-difluoro-13-(((2R,7aS)-2-fluorotetrahydro-1H-pyrrolizin-7a(5H)-yl)methoxy)-5a,6,7,8,9,10-hexahydro-5H-6,9-epiminoazepino[2′,1′:3,4][1,4]oxazepino[5,6,7-de]quinazolin-2-yl)-5-ethylnaphthalen-2-ol dihydrochloride] showed a half-inhibitory concentration (IC50) of 2800 nM.
